≈ marks a conversion by molar mass, not a printed value. Calls of active or inactive are those of the source. The calls are words filed in the database; no cut-off is given here.
Assays:
[1] = test system: Staphylococcus aureus; experiment: Antibacterial activity against Staphylococcus aureus ATCC 29213 assessed as inhibition of visible growth measured after 18 to 24 hrs by broth dilution method; assay type: functional; details: time 18-24 hrs
[2] = test system: Staphylococcus aureus; experiment: Antibacterial activity against methicillin-resistant Staphylococcus aureus N315 assessed as inhibition of visible growth measured after 18 to 24 hrs by broth dilution method; assay type: functional; details: time 18-24 hrs
[3] = test system: Staphylococcus aureus; experiment: Antibacterial activity against methicillin-resistant Staphylococcus aureus NCTC 10442 assessed as inhibition of visible growth measured after 18 to 24 hrs by broth dilution method; assay type: functional; details: time 18-24 hrs
[4] = Haemolytic activity in rabbit red blood cells incubated for 60 mins by k multi-mode reader relative to control; assay type: toxicity, cell-based, Oryctolagus cuniculus, Erythrocyte; details: rabbit red blood cells
[5] = test system: Escherichia coli; experiment: Antibacterial activity against Escherichia coli ATCC 25922 assessed as inhibition of visible growth measured after 18 to 24 hrs by broth dilution method; assay type: functional; details: time 18-24 hrs
[6] = Selectivity ratio, HC50 for hemolytic activity in rabbit RBC to MIC for antibacterial activity against methicillin-resistant Staphylococcus aureus N315; assay type: toxicity; details: rabbit red blood cells
[7] = Selectivity ratio, HC50 for hemolytic activity in rabbit RBC to MIC for antibacterial activity against Staphylococcus aureus ATCC 29213; assay type: toxicity; details: rabbit red blood cells
[8] = Selectivity ratio, HC50 for hemolytic activity in rabbit RBC to MIC for antibacterial activity against methicillin-resistant Staphylococcus aureus NCTC 10442; assay type: toxicity; details: rabbit red blood cells
[9] = test system: Staphylococcus aureus; experiment: Drug resistance development in Staphylococcus aureus ATCC 29213 assessed as fold change in MIC measured after 20 passages; assay type: functional
[10] = test system: Cell membrane; experiment: Induction of membrane depolarization in Staphylococcus aureus ATCC 29213 assessed as increase in fluorescence intensity at 4 to 8 times MIC measured for 60 mins by DiSC3(5) dye based fluorescence method; assay type: subcellular
[11] = test system: Cell membrane; experiment: Induction of membrane depolarization in Escherichia coli ATCC 25922 assessed as increase in fluorescence intensity at 4 to 8 times MIC measured for 60 mins by DiSC3(5) dye based fluorescence method; assay type: subcellular
[12] = test system: Cell membrane; experiment: Induction of outer membrane permeability in Escherichia coli ATCC 25922 assessed as increase fluoresence intensity at 4 to 8 times of MIC measured for 60 mins by NPN uptake assay; assay type: subcellular

Compound	MIC [1]	MIC [2]	MIC [3]	HC50 at 1 h [4]	MIC [5]	selectivity ratio [6]	selectivity ratio [7]	selectivity ratio [8]	fold change (FC) [9]	Activity [10]	Activity [11]	Activity [12]
CCCCCCCCC(=O)NCc1ccc(O)c(O)c1	> 50 µg/mL	> 50 µg/mL	> 50 µg/mL	> 200 µg/mL	> 50 µg/mL	–	–	–	–	–	–	–
CCCCCCCCC(=O)NCc1ccc(OCCNC(=N)N)c(OC)c1	50 µg/mL (≈ 132 µM)	25 µg/mL (≈ 66 µM)	25 µg/mL (≈ 66 µM)	> 200 µg/mL	> 50 µg/mL	> 4	> 4	> 4	–	–	–	–
CCCCCCCCC(=O)NCc1ccc(OCCCCCCCCCCCCNC(=N)N)c(OC)c1	> 50 µg/mL	25 µg/mL (≈ 48.2 µM)	25 µg/mL (≈ 48.2 µM)	> 200 µg/mL	> 50 µg/mL	–	–	–	–	–	–	–
CCCCCCCCC(=O)NCc1ccc(OCCCCCCNCCN(CCNC(=N)N)CCNC(=N)N)c(OCCCCCCNCCN(CCNC(=N)N)CCNC(=N)N)c1	1.56 µg/mL (≈ 1.73 µM)	1.56 µg/mL (≈ 1.73 µM)	1.56 µg/mL (≈ 1.73 µM)	> 200 µg/mL	12.5 µg/mL (≈ 13.8 µM)	> 128	> 128	> 128	–	–	–	–
CCCCCCCCC(=O)NCc1ccc(OCCCCCCCCCCNC(=N)N)c(OC)c1	6.25 µg/mL (≈ 12.7 µM)	6.25 µg/mL (≈ 12.7 µM)	6.25 µg/mL (≈ 12.7 µM)	> 200 µg/mL	> 50 µg/mL	> 32	> 32	> 32	–	–	–	–
CCCCCCCCC(=O)NCc1ccc(OCCCCNCC)c(OC)c1	> 50 µg/mL	> 50 µg/mL	> 50 µg/mL	> 200 µg/mL	> 50 µg/mL	–	–	–	–	–	–	–
CCn1cc(C(=O)O)c(=O)c2cc(F)c(N3CCNCC3)cc21 [NORFLOXACIN]	–	–	–	–	–	–	–	–	128	–	–	–
CCN(CC)CCCCOc1ccc(CNC(=O)CCCC/C=C/C(C)C)cc1OC	> 50 µg/mL	> 50 µg/mL	> 50 µg/mL	> 200 µg/mL	> 50 µg/mL	–	–	–	–	–	–	–
CCCCCCCCC(=O)NCc1ccc(OCCCCCCNC(=N)N)c(OC)c1	3.12 µg/mL (≈ 7.19 µM)	3.12 µg/mL (≈ 7.19 µM)	1.56 µg/mL (≈ 3.59 µM)	> 200 µg/mL	> 50 µg/mL	> 64	> 64	> 64	–	–	–	–
COc1cc(CNC(=O)CCCC/C=C/C(C)C)ccc1OCCCCCCN	> 50 µg/mL	> 50 µg/mL	> 50 µg/mL	> 200 µg/mL	> 50 µg/mL	–	–	–	–	–	–	–
COc1cc(CNC(=O)CCCC/C=C/C(C)C)ccc1O [CAPSAICIN]	> 50 µg/mL	> 50 µg/mL	> 50 µg/mL	> 200 µg/mL	> 50 µg/mL	–	–	–	–	inactive	inactive	inactive
COc1cc(CNC(=O)CCCC/C=C/C(C)C)ccc1OCCCCNC(=N)N	3.12 µg/mL (≈ 7.47 µM)	6.25 µg/mL (≈ 14.9 µM)	3.12 µg/mL (≈ 7.47 µM)	> 200 µg/mL	50 µg/mL (≈ 119 µM)	> 32	> 32	> 32	–	–	–	–
CCCCCCCCC(=O)NCc1ccc(OCCCCN)c(OC)c1	> 50 µg/mL	> 50 µg/mL	> 50 µg/mL	> 200 µg/mL	> 50 µg/mL	–	–	–	–	–	–	–
CCCCCCCCC(=O)NCc1ccc(OCCCCNC(=N)N)c(OC)c1	12.5 µg/mL (≈ 30.7 µM)	6.25 µg/mL (≈ 15.4 µM)	6.25 µg/mL (≈ 15.4 µM)	> 200 µg/mL	> 50 µg/mL	> 16	> 16	> 16	–	–	–	–

Source: ChEMBL document CHEMBL5236632, “Membrane-Active Nonivamide Derivatives as Effective Broad-Spectrum Antimicrobials: Rational Design, Synthesis, and Biological Evaluation” (J Med Chem, 2022)
